# How the values were obtained:
# MNCs in peripheral blood = assay: CFU and CFU-GM generated by MNCs in peripheral blood (semisolid medium culture); assay type: in vivo, C57 mice; details: 5 mg/kg hypodermic injection, blood at 4 h, MNCs cultured 7 days; compared to DMSO and G-CSF (FIG. 4)
# Method: 9 C57 mice, male, were randomly divided into 3 groups: DMSO group with 3 mice, G-CSF group with 3 mice, TA01 group with 3 mice. Injection volume was calculated on the basis of 5 mg/kg body weight, and the medium for injection was TE buffer with pH 7.5-8.5. At 4 h post hypodermic injection, the eyeballs were extracted and the peripheral blood was collected into a 10 ml centrifuge tube which was rinsed with heparin (Tianjin Haoyang Bioproduct Technology Limited Co.) in advance, and then PBS (Hyclone Inc.) was added up to 5 ml and mixed. Mouse percoll (Tianjin Haoyang Bioproduct Technology Limited Co.) was preloaded into vials at 5 ml/vial (operated on a superclean bench), and then the blood mixed with PBS was slightly impregnated into the upper layer of the percoll and centrifuged for 20 min at 2000 rpm/min. Cells in the middle layer were transferred into a new 10 ml centrifuge tube which was filled up to 10 ml with PBS, and centrifuged for 5 min at 1500 rpm/min to remove PBS in the supernatant. The tube was filled up to 10 ml with PBS, centrifuged for another 5 min at 1500 rpm/min to remove PBS in the supernatant. Then, the tube was filled up to 1 ml with PBS. The number of cells was then counted and the number of the mononuclear cells (MNCs) per ml of the solution was calculated. […] Finally, CFU and CFU-GM were counted.
# hematopoietic stem cells = assay: Mobilization of hematopoietic stem cells into peripheral blood (overall conclusion); assay type: in vivo; details: summary statement; verification processes for other compounds not described
# [1] = tested on: CD34+ cells in peripheral blood; assay: Percentage of CD34+ cells in peripheral blood by flow cytometry; assay type: in vivo, C57 mice; details: 5 mg/kg hypodermic injection, 4 h post injection, tail blood; compared to DMSO and G-CSF (FIG. 2)
# Method: 9 C57 mice (Experimental animal center, Academy of Military Medical Sciences), male, were randomly divided into 3 groups: DMSO (Beijing Chemical Inc.) group with 3 mice, G-CSF (Xiamen Baote Biotechnology Inc.) group with 3 mice, TA01 group with 3 mice. Injection volume was calculated on the basis of 5 mg/kg body weight, and the medium for the injection was TE buffer with pH 7.5-8.5. At 4 h post hypodermic injection, 100 μL blood was harvested from tail and treated with RBC lysis buffer (Jingmei Biotechnology Inc.), wherein, the volume ratio of the blood to the RBC lysis buffer was 1:10. The two were uniformly mixed, stood for 10-15 min under room temperature, and then centrifuged for 6 min at 1500 rpm/min. After removing the supernatant, 100 ul 1% (v/v) serum (Hyclone Inc.) was added and mixed. Then 0.75 ul purified anti-mouse CD34 (Biolegend Inc) was added (operated on a superclean bench), mixed, and incubated for 1-2 h under room temperature. The mixture was added up to 1.5 ml with PBS containing 1% (v/v) serum, and then centrifuged for 5 min at 1500 rpm/min. After removing the supernatant, 100 ul 1% (v/v) serum was added and mixed. Then 2 ul Goat anti Mice antibody labeled with FITC (Beijing Zhongshanjinqiao Biotechnology Limited Co.) was added, mixed and incubated for 30 min under room temperature. […]
# [2] = tested on: mice receiving a lethal irradiation; assay: Survival of lethally irradiated mice after transplant of mobilized peripheral blood MNCs; assay type: in vivo, C57 mice; details: 7.0 Gy 60Co irradiation; tail vein injection of MNCs from donors given 5 mg/kg, 4 h; survival in 30 days; compared to DMSO and G-CSF (FIG. 5)
# Method: 9 C57 mice, male, were randomly divided into 3 groups, and then received a whole body irradiation by ^60Co γ ray at 2.72 Gy/min with a volume of 7.0 Gy. 9 C57 mice, male, were randomly divided into 3 groups: DMSO group with 3 mice, G-CSF group with 3 mice, and TA01 group with 3 mice. Injection volume was calculated on the basis of 5 mg/kg body weight, and the medium for injection was TE buffer with pH 7.5-8.5. At 4 h post hypodermic injection, the eyeballs were extracted and peripheral blood was collected into a 10 ml centrifuge tube which was rinsed with heparin in advance, and then PBS was added up to 5 ml and mixed. Mouse percoll (Tianjin Haoyang Bioproduct Technology Limited Co.) was preloaded into vials at 5 ml/vial (operated on a superclean bench), and then the blood mixed with PBS was slightly impregnated to the upper layer of the percoll and centrifuged for 20 min at 2000 rpm/min. Cells in the middle layer were transferred into a new 10 ml centrifuge tube which was filled up to 10 ml with PBS, centrifuged for 5 min at 1500 rpm/min to remove PBS in the supernatant. The tube was filled up to 10 ml with PBS, and centrifuged for another 5 min at 1500 rpm/min to remove PBS in the supernatant. Then the tube was filled up to 0.5 ml with PBS. […] The number of survival mice in 30 days was counted.
# WBCs in peripheral blood = assay: Number of WBCs in peripheral blood (Sysmex Microcell Counter); assay type: in vivo, C57 mice; details: 5 mg/kg hypodermic injection, 4 h post injection, tail blood; compared to DMSO and G-CSF (FIG. 3)
# Method: 9 C57 mice, male, were randomly divided into 3 groups: DMSO group with 3 mice, G-CSF group with 3 mice, and TA01 group with 3 mice. Injection volume was calculated on the basis of 5 mg/kg body weight, and the medium for injection was TE buffer with pH 7.5-8.5. At 4 h post hypodermic injection, 10 μl blood was harvested from tail and treated with 2 ml cell diluting buffer (Jinnan Bolai Biotechnology Limited Co.). The number of WBCs was determined by a Sysmex Microcell Counter.
compound,measurement,setting,value
"CN(C)CCN(CCN(C)C)CCN(C)C [TA01, Tris[2-(dimethylamino)ethyl]amine]",number of CFU generated by MNCs in peripheral blood,MNCs in peripheral blood,can promote the numbers of both CFU and CFU-GM
same,number of CFU-GM generated by MNCs in peripheral blood,MNCs in peripheral blood,can promote the numbers of both CFU and CFU-GM
same,mobilization of hematopoietic stem cells into peripheral blood,hematopoietic stem cells,can efficiently mobilize hematopoietic stem cells into peripheral blood
same,percentage of CD34+ cells in peripheral blood,[1],can increase the percentage of CD34+ cells in peripheral blood compared to DMSO and G-CSF
same,survival rate of mice receiving a lethal irradiation,[2],survival rate of the mice receiving a lethal irradiation can be increased
same,number of WBCs in peripheral blood,WBCs in peripheral blood,can increase the number of WBCs in peripheral blood compared to DMSO and G-CSF
